# Patent US20260325511A1, “METHODS OF USE OF A LIPOSOMAL COMPOSITION COMPRISING AN ATR INHIBITOR” (Jazz Pharmaceuticals Therapeutics, Inc., priority 2023, published 2026)
# Key:
# Type in all cases: in vivo, mouse
# CRC Colo205 [1] = experiment: Tumor efficacy study of liposomal ATR inhibitors + irinotecan, CRC Colo205 model (Example 3)
# Description: Tumor efficacy studies were used to compare the efficacy of ATR inhibitors (Compounds A and C) in liposomal formulations in combination with irinotecan against irinotecan as a single agent in CRC Colo205 model.
# (§1) Subcutaneous tumor models were initiated on 6-8 week old, female athymic nude mice. A cell suspension containing 5e6/100 μL CRC Colo205 cells in 1:1 PBS: Matrigel was subcutaneously injected into the hind flank of […] mice. Tumors were measured three times a week by digital caliper and reported as volume, calculated as V=π×1×w∧2 wherein 1 and w denote the longest and shortest tumor diameter respectively. Engrafted mice were then randomized into cohorts for treatment at an average tumor size of 80 mm^3.
# (§2) Mice were organized into appropriate groups consisting of control (empty vehicle) and treatment groups including free irinotecan, irinotecan in combination with liposomal Compound A or liposomal Compound C, or irinotecan and berzosertib. Mice were administered free drug orally, and injected intravenously for liposomal compounds, with the required volume of sample to administer the prescribed dose to the animals based on individual mouse weights on dosing days. Animals were weighed and monitored for survival and in-life observations were collected at the time of weight measurement. Mice were monitored individually to endpoint which was either an individual tumor weight of 2000 mm^3 or other defined risk factors, whichever came first.
# Animal study groups are disclosed in Table 2 (n=8 per group). Irinotecan was administered at 50 mg/kg via IP in a liposomal-free composition, once a week. Liposomal ATR inhibitors were administered at either 20 mg/kg (Group7) or 40 mg/kg (Groups 3, 5, 6, 8-10) via IV every other day. Berzosertib, clinical benchmark, was administered 5 consecutive days with 2 days off schedule. Last dose of any therapeutically active agent was administered on day 33.
# Table 3 summarizes the tumor growth inhibition (TGI %) compared to the vehicle (Group 2) and tumor growth dynamic (TGD) compared to irinotecan single agent ([…]).
# CRC Colo205 [2] = experiment: Dosing schedule study, once a week, efficacy similar to Example 3 (Example 4A); settings: vs vehicle; day 28 from inoculation (day 14 from start of dosing); irinotecan 50 mg/kg IP
# CRC Colo205 [3] = experiment: Dosing schedule study, efficacy similar to Example 3 (Example 4B); set-up: dose or concentration left out as unconfirmed; settings: vs vehicle; day 44 from inoculation (day 12 from start of measurements)
# Description: as §1
# as §2, with “Mice were administered free drug orally, and injected intravenously for liposomal compounds, with the required volume of sample to administer the prescribed dose to the animals based on individual mouse weights on dosing days.” left out
# Efficacy study similar to those described in Example 3 were also repeated where liposomal ATR inhibitors (Compounds A, C, or berzosertib) were dosed once a week or three times a week. Animal study groups are disclosed in Table 5B (n=8 per group). […]
# [4] = system: colorectal carcinoma (CRC) model (Colo205); experiment: Efficacy in colorectal cancer model Colo205 (Example 5); settings: Lipo-G Comp. A 10-40 mg/kg IV QW or irinotecan 50 mg/kg IP QW
# Description: as §1
# as §2, with “Mice were administered free drug orally, and injected intravenously for liposomal compounds, with the required volume of sample to administer the prescribed dose to the animals based on individual mouse weights on dosing days.” left out
# An efficacy study similar to those described in Example 3 above, was repeated where liposomal ATR inhibitors (Compounds A) were dosed once a week in a colorectal carcinoma (CRC) model (Colo205). Animal study groups are disclosed in Table 7 (n=8 per group)
# [5] = system: non-small-cell lung cancer model (CTG-0828 PDX); experiment: Efficacy in NSCLC model CTG-0828 PDX (Example 7)
# Description: An efficacy study similar to those described in Example 3 above, was repeated where liposomal ATR inhibitor (Compounds A) and/or irinotecan were dosed at 50 mg/kg once a week in a non-small-cell lung cancer model (CTG-0828 PDX) for 5 weeks (QWx5) and compared to combinations of liposomal ATR inhibitor (Compounds A) and irinotecan. Animal study groups are disclosed in Table 10 (n=8 per group).
# [6] = irinotecan 50 mg/kg IP QW (reference)
compound,measurement,setting,value
"CCc1c2c(nc3ccc(OC(=O)N4CCC(N5CCCCC5)CC4)cc13)-c1cc3c(c(=O)n1C2)COC(=O)[C@]3(O)CC [Irinotecan, irinotecan]",TGI % (vs. vehicle) d 20,"CRC Colo205 [1]; day 20, irinotecan 50 mg/kg IP QW",67%
same,TGI % (vs. vehicle) d 27,"CRC Colo205 [1]; day 27, irinotecan 50 mg/kg IP QW",74%
same,CR % (complete response),CRC Colo205 [1]; irinotecan 50 mg/kg IP QW,0%
same,ORR % (objective response rate),CRC Colo205 [1]; irinotecan 50 mg/kg IP QW,0%
same,TGD (vs. single agent) %,CRC Colo205 [1]; [6],0%
same,TGD (vs. single agent) Index,CRC Colo205 [1]; [6],1.0
same,"PR# (partial response), number of mice","CRC Colo205 [1]; irinotecan 50 mg/kg IP QW, n=8",0 mice
same,"Total R (response), number of mice","CRC Colo205 [1]; irinotecan 50 mg/kg IP QW, n=8",0 mice
same,TGI % d 28 (d 14),CRC Colo205 [2],55.4%
same,TGI % D 44(d 12),CRC Colo205 [3],0%
same,activity as single agent,[4],no/limited activity
same,CR tumor regression rate,[5]; 50 mg/kg QWx5,0%
same,Tumor Growth Delay Index (TGDI),[5]; 50 mg/kg QWx5,4.4
same,survival: median time to reach and exceed a tumor burden of 1 cm,"[5]; 50 mg/kg QWx5, statistically significant improvement",100 days
same,Max % Tumor Grown Inhibition (TGI),"[5]; 50 mg/kg each agent, QWx5",91%
same,Regression * (% max),"[5]; 50 mg/kg each agent, QWx5",60%
same,TGDI (vs. vehicle),"[5]; 50 mg/kg each agent, QWx5",4.4
